From PubChem BioAssay (NCI) come the findings set out here.

Test systems include UACC-62 melanoma; T-47D breast; HL-60(TB) leukemia; NCI-H522 lung; SF-539 CNS; SK-MEL-5 melanoma; OVCAR-4 ovarian; HOP-62 NSCLC; NCI/ADR-RES ovarian; HS 578T breast.
Holding throughout (experiment): NCI anticancer screen, dose series, 48 h

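In this assay, cells in 96-well plates receive the compound at five concentrations for 48 hours. Endpoints are linearly interpolated between the surrounding concentrations. The concentration for 50% growth inhibition is given as GI50. The concentration for full growth arrest is given as TGI.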

For `COc1cccc2c1C(=O)c1c(O)c3c(c(O)c1C2=O)C[C@@](O)(/C(C)=N/NC(=O)c1cccc([N+](=O)[O-])c1)C[C@@H]3OC1CC(N)C(O)C(C)O1` (stereo not given in full), the GI50 in the experiment on UACC-62 melanoma is 0.199 µM; in the experiment with T-47D breast it was 0.176 µM; with HL-60(TB) leukemia, 0.146 µM; in the experiment on NCI-H522 lung it was 0.494 µM; with SF-539 CNS, 0.21 µM; in the experiment with SK-MEL-5 melanoma it was 0.113 µM. In addition, the GI50 was 0.65 µM with OVCAR-4 ovarian, 0.283 µM with HOP-62 NSCLC, 5.26 µM in the experiment with NCI/ADR-RES ovarian and 0.561 µM in the experiment with HS 578T breast. Further, the TGI was found to be 1.5 µM in the experiment with UACC-62 melanoma; 1.26 µM in the experiment with T-47D breast; 0.923 µM in the experiment with HL-60(TB) leukemia; 5.96 µM in the experiment on NCI-H522 lung; 1.22 µM with SF-539 CNS; 0.361 µM in the experiment with SK-MEL-5 melanoma. For the same compound, the TGI came out at 11.3 µM in the experiment on OVCAR-4 ovarian, 4.41 µM with HOP-62 NSCLC, 35.8 µM in the experiment on NCI/ADR-RES ovarian and 5.5 µM in the experiment with HS 578T breast.

For the compound `Cc1cc(NC(=O)NCCCOc2ccc(N3C(N)=NC(N)=NC3(C)C)cc2Cl)ccc1S(=O)(=O)F`, the GI50 with UACC-62 melanoma was 0.608 µM; in the experiment on T-47D breast it was 4.82 µM; with HL-60(TB) leukemia, 0.647 µM; in the experiment with NCI-H522 lung, 1.11 µM; in the experiment on SF-539 CNS, 2.85 µM; in the experiment on SK-MEL-5 melanoma, 0.492 µM. Besides, the GI50 is 2.34 µM in the experiment with OVCAR-4 ovarian, 2.24 µM in the experiment with HOP-62 NSCLC, > 100 µM with NCI/ADR-RES ovarian and 2.77 µM in the experiment with HS 578T breast. Further, the TGI with UACC-62 melanoma came to 24.9 µM; in the experiment with T-47D breast, 61.9 µM; in the experiment with HL-60(TB) leukemia, 28.9 µM; in the experiment with NCI-H522 lung, 25.2 µM; in the experiment with SF-539 CNS, 31.7 µM; with SK-MEL-5 melanoma, 11.1 µM. Besides, the TGI in the experiment with OVCAR-4 ovarian is > 100 µM; with HOP-62 NSCLC it was 19.6 µM; with NCI/ADR-RES ovarian it was > 100 µM; in the experiment on HS 578T breast, 35 µM.

For `Clc1ccc2c(NCCCCNc3nc(N4CCOCC4)nc4ccccc34)ccnc2c1`, the GI50 in the experiment on UACC-62 melanoma is 1.92 µM; in the experiment with T-47D breast, 2.23 µM; in the experiment on HL-60(TB) leukemia, 2.27 µM; in the experiment with NCI-H522 lung it was 2.34 µM; with SF-539 CNS, 1.8 µM; in the experiment on SK-MEL-5 melanoma, 1.83 µM. In addition, the GI50 is 2.2 µM in the experiment on OVCAR-4 ovarian, 2.17 µM in the experiment with HOP-62 NSCLC, 4.88 µM in the experiment with NCI/ADR-RES ovarian and 2.25 µM in the experiment on HS 578T breast. In addition, the TGI in the experiment on UACC-62 melanoma amounted to 3.48 µM; in the experiment with T-47D breast, 6.82 µM; in the experiment with HL-60(TB) leukemia, 4.3 µM; in the experiment with NCI-H522 lung, 5.6 µM; with SF-539 CNS, 3.39 µM; with SK-MEL-5 melanoma, 3.3 µM. The TGI in the experiment with OVCAR-4 ovarian was determined as 5.52 µM; with HOP-62 NSCLC, 5.67 µM; in the experiment with NCI/ADR-RES ovarian, 20.6 µM; with HS 578T breast, 7.66 µM.

`CCn1c(-c2nonc2N)nc2cnc(Oc3cccc(NC(=O)c4ccc(OCCN5CCOCC5)cc4)c3)cc21`: the GI50 was 6.39 µM in the experiment on UACC-62 melanoma; 1.94 µM in the experiment with T-47D breast; 10.3 µM with HL-60(TB) leukemia; 1.41 µM in the experiment with NCI-H522 lung; 0.929 µM with SF-539 CNS; 3.18 µM in the experiment with SK-MEL-5 melanoma. Also, the GI50 in the experiment with OVCAR-4 ovarian is 4.48 µM; with HOP-62 NSCLC, 1.5 µM; with NCI/ADR-RES ovarian, 6.1 µM; in the experiment on HS 578T breast, 0.0149 µM. The TGI was > 25 µM with UACC-62 melanoma; > 25 µM in the experiment on T-47D breast; > 25 µM in the experiment with HL-60(TB) leukemia; > 25 µM in the experiment with NCI-H522 lung; > 25 µM in the experiment on SF-539 CNS; > 22 µM in the experiment with SK-MEL-5 melanoma. Besides, the TGI in the experiment on OVCAR-4 ovarian is > 25 µM; in the experiment with HOP-62 NSCLC, > 25 µM; in the experiment with NCI/ADR-RES ovarian, > 25 µM; in the experiment with HS 578T breast, 8.26 µM.

`C=C(C)[C@@H]1CC[C@]2(C(=O)OC)CC[C@]3(C)[C@H](CC[C@@H]4[C@@](C)(CCc5nn[nH]n5)[C@H](C(=C)C)CC[C@]43C)[C@@H]12`: the GI50 in the experiment on UACC-62 melanoma is 5.35 µM; with T-47D breast, 15.2 µM; in the experiment on HL-60(TB) leukemia it was 19 µM; in the experiment on NCI-H522 lung, 17.2 µM; in the experiment with SF-539 CNS, 16.5 µM; in the experiment on SK-MEL-5 melanoma it was 11.4 µM. In addition, the GI50 with OVCAR-4 ovarian was 14.7 µM; with HOP-62 NSCLC, 18.7 µM; in the experiment with NCI/ADR-RES ovarian, 20.8 µM; with HS 578T breast, 19.8 µM. Further, the TGI amounted to 19.6 µM in the experiment with UACC-62 melanoma; 84.3 µM in the experiment with T-47D breast; 62.3 µM in the experiment on HL-60(TB) leukemia; 51.5 µM in the experiment on NCI-H522 lung; 30.7 µM in the experiment with SF-539 CNS; 24.4 µM in the experiment with SK-MEL-5 melanoma. The TGI turned out to be 48.1 µM with OVCAR-4 ovarian, 41.1 µM in the experiment with HOP-62 NSCLC, 73.2 µM with NCI/ADR-RES ovarian and 53.8 µM with HS 578T breast.

With `CCOC(=O)c1sc2nc(=S)[nH]c(NC(N)=S)c2c1C`, the GI50 is 12.4 µM in the experiment with UACC-62 melanoma; 11.3 µM in the experiment on T-47D breast; 51.2 µM in the experiment with HL-60(TB) leukemia; 20.7 µM in the experiment on NCI-H522 lung; 11.9 µM with SF-539 CNS; 16.8 µM in the experiment on SK-MEL-5 melanoma. Further, the GI50 in the experiment with OVCAR-4 ovarian is 35.4 µM; in the experiment on HOP-62 NSCLC it was 21 µM; in the experiment on NCI/ADR-RES ovarian, 12.7 µM; in the experiment with HS 578T breast, 26 µM. The TGI was 26.1 µM in the experiment on UACC-62 melanoma; 37 µM with T-47D breast; > 100 µM in the experiment with HL-60(TB) leukemia; 55 µM in the experiment with NCI-H522 lung; 25.4 µM in the experiment on SF-539 CNS; 31.7 µM with SK-MEL-5 melanoma. Besides, the TGI in the experiment on OVCAR-4 ovarian was > 100 µM; with HOP-62 NSCLC, 49.7 µM; in the experiment on NCI/ADR-RES ovarian, 29.9 µM; in the experiment with HS 578T breast, 59.7 µM.

For the compound `CCCCCCCCCCCC1=NC(C)(C)CN1C(C)C`, the GI50 in the experiment on UACC-62 melanoma was 1.75 µM; in the experiment on T-47D breast it was 2.9 µM; with HL-60(TB) leukemia, 2.14 µM; with NCI-H522 lung, 2.65 µM; in the experiment with SF-539 CNS, 2.14 µM; with SK-MEL-5 melanoma, 2.05 µM. Besides, the GI50 in the experiment with OVCAR-4 ovarian is 4.29 µM; in the experiment on HOP-62 NSCLC it was 4.35 µM; with NCI/ADR-RES ovarian, 3.63 µM; in the experiment on HS 578T breast, 2.81 µM. In addition, the TGI with UACC-62 melanoma was determined as 3.54 µM; in the experiment on T-47D breast it was 8.73 µM; in the experiment on HL-60(TB) leukemia, 4.55 µM; in the experiment with NCI-H522 lung, 10.8 µM; in the experiment on SF-539 CNS, 4.41 µM; in the experiment with SK-MEL-5 melanoma, 4.34 µM. In addition, the TGI in the experiment with OVCAR-4 ovarian came out at 15.9 µM; in the experiment on HOP-62 NSCLC, 16.2 µM; with NCI/ADR-RES ovarian, 13.4 µM; in the experiment with HS 578T breast, 13.1 µM.
